# Data: patent US10316131B2, “Hyperbranched polymer modified with isocyanate linker and mix of short and long chain alkyl polyether” (priority 2014, dated 2019)
# Legend:
# [1] = Solubilization measurements with a highthroughput screening robot; assay type: physicochemical
# Method: Solubilization measurements were carried out with a highthroughput screening robot. […] After the addition of stirring bars and 24 hours incubation time the samples were filtrated through polypropylene filters in order to separate dissolved active and its solid form. The amount of solubilized active was determined by UV/VIS spectroscopy.
# [2] = system: Puccinia Recondata/Tritici; assay: Greenhouse test of pesticidal activity on infected wheat, suspension concentrates SC1 and SC2; assay type: in vivo, Puccinia Recondata/Tritici on wheat variety Monopol
# Method: An aqueous suspension concentrate (“SC1”) was prepared as in Application Example 1. The pesticidal activity was tested in greenhouse tests on wheat variety Monopol, which was infected with the fungi Puccinia Recondata/Tritici. The plants were treated with SC1 three days after the inoculation at a use rate of […] (200 l water/ha). The use rate of the polymers of the invention was kept constant at 250 g per ha.
# The above greenhouse tests were also made with a suspension concenctrate “SC2” of the triazole fungicide 2-[4-(4-chlorophenoxy)-2-(trifluoromethyl)phenyl]-1-(1H-1,2,4-triazol-1-yl)propan-2-ol (“triazole fungicide”) (100 g/ha) instead of fluxapyroxad.
# [3] = 10 mg solid active in 3 wt % polymer solution in CIPAC water D, 24 hours, listed as of the active = no polymer
smiles,measurement,setting,value
NC(=O)N1c2ccccc2C=Cc2ccccc21 [carbamazepine],Solubility of carbamazepine,[1]; [3],181 pmm
"CC(O)(Cn1cncn1)c1ccc(Oc2ccc(Cl)cc2)cc1C(F)(F)F (centres unmarked) [triazole fungicide, 2-[4-(4-chlorophenoxy)-2-(trifluoromethyl)phenyl]-1-(1H-1,2,4-triazol-1-yl)propan-2-ol]","% infected leaf area, use rate of active 100%",[2]; triazole fungicide SC2 (100 g/ha) instead of fluxapyroxad,83%
same,"% infected leaf area, use rate of active 33%","[2]; triazole fungicide SC2 instead of fluxapyroxad, 33% use rate",91%
same,Solubility of the triazole fungicide,[1]; [3],15 pmm
Cn1cc(C(=O)Nc2ccccc2-c2cc(F)c(F)c(F)c2)c(C(F)F)n1 [fluxapyroxad],"% infected leaf area, use rate of active 33%","[2]; fluxapyroxad SC1, use rate 8.3 pesticide per ha, polymer 250 g per ha, treated three days after inoculation, 7 days after inoculation",80%
same,"% infected leaf area, use rate of active 100%","[2]; fluxapyroxad SC1, use rate 25 pesticide per ha, polymer 250 g per ha, treated three days after inoculation, 7 days after inoculation",79%
same,Solubility of fluxapyroxad,[1]; [3],10 pmm
N#Cc1nn(-c2c(Cl)cc(C(F)(F)F)cc2Cl)c(N)c1[S+]([O-])C(F)(F)F (centres unmarked) [fipronil],Solubility of fipronil,[1],12 pmm
